From article PMC12455570 (2025)

Tested on: FAM-(CUG)10-BHQ (RNA, repeat) GCGCUGCUGCUGCUGCUGCUGAAAAGCUGCUGCUGCUGCUGCGC
Test: FAM/BHQ fluorescence thermal melting
Conditions: 5 μM compound

With `CC1CCCn2cc(-c3cccc(NC(=O)CCCCCCNCCCCNCCCCCCC(=O)Nc4cccc(-c5cn6c(n5)C(C)CCC6)c4)c3)nc21` (stereo not shown) as the molecule, how does the ΔTm read?
The ΔTm was 3.1 ± 0.7 °C.
